Reference: patent US12043599B2, “Herbicidal compounds” (SYNGENTA PARTICIPATIONS AG, priority 2018, dated 2024)

Columns and labels:
Type in all cases: in vivo
Details in all cases: 250 g/h, evaluated after 13 days
[1] = test system: Lolium perenne (LOLPE); assay: Post-emergence herbicidal glasshouse test, percentage damage
Procedure, shortened: (§1)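 Glasshouse, 24/16 °C, 14 h photoperiod, 65% humidity. Sprayed at 250 g/h pre- (1 d) or post-emergence (8 d); evaluated 13 d after spraying, 5-point damage scale.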

[2] = test system: Avena fatua (AVEFA); assay: as above
Procedure, shortened: as §1

[3] = test system: Alopecurus myosuroides (ALOMY); assay: as above
Procedure, shortened: as §1

[4] = test system: Setaria faberi (SETFA); assay: as above
Procedure, shortened: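 Percentage damage was scored 13 days after treatment on a five-point scale (1=0-19% to 5=80-100%). Treatments were post-emergence sprays on 8-day-old wheat, barley and SETFA plants in a glasshouse (24/16 °C day/night, 14 h light, 65% humidity), using acetone/water 50:50 with 0.5% Tween 20 at the stated rates. Wheat additionally received cloquintocet-mexyl safener at 50 g/ha.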

[5] = test system: Lolium perenne (LOLPE); assay: Pre-emergence herbicidal glasshouse test, percentage damage
Procedure, shortened: as §1

[6] = test system: Echinochloa crus-galli (ECHCG); assay: as above
Procedure, shortened: as §1

[7] = test system: Avena fatua (AVEFA); assay: as above
Procedure, shortened: as §1

[8] = test system: Alopecurus myosuroides (ALOMY); assay: as above
Procedure, shortened: as §1

[9] = test system: Setaria faberi (SETFA); assay: as above
Procedure, shortened: as §1

## CC#Cc1cc(C)c(C2C(=O)CC3(CCN(C(=O)c4cccnn4)CC3)CC2=O)c(C)c1 [Compound A21]
[1]
  LOLPE POST percentage damage (five point scale): 5 (5=80-100%)
[2]
  AVEFA POST percentage damage (five point scale): 5 (5=80-100%)
[3]
  ALOMY POST percentage damage (five point scale): 5 (5=80-100%)
[4]
  SETFA POST percentage damage (five point scale): 5 (5=80-100%)
[5]
  LOLPE PRE percentage damage (five point scale): 5 (5=80-100%)
[6]
  ECHCG PRE percentage damage (five point scale): 2 (2=20-39%)
[7]
  AVEFA PRE percentage damage (five point scale): 5 (5=80-100%)
[8]
  ALOMY PRE percentage damage (five point scale): 5 (5=80-100%)
[9]
  SETFA PRE percentage damage (five point scale): 3 (3=40-59%)

## CC#Cc1cc(C)c(C2C(=O)CC3(CCN(S(=O)(=O)c4cn(C)nc4C(F)(F)F)CC3)CC2=O)c(C)c1 [Compound A40]
[1]
  LOLPE POST percentage damage (five point scale): 5 (5=80-100%)
[2]
  AVEFA POST percentage damage (five point scale): 5 (5=80-100%)
[3]
  ALOMY POST percentage damage (five point scale): 5 (5=80-100%)
[4]
  SETFA POST percentage damage (five point scale): 5 (5=80-100%)
[5]
  LOLPE PRE percentage damage (five point scale): 5 (5=80-100%)
[6]
  ECHCG PRE percentage damage (five point scale): 5 (5=80-100%)
[7]
  AVEFA PRE percentage damage (five point scale): 5 (5=80-100%)
[8]
  ALOMY PRE percentage damage (five point scale): 5 (5=80-100%)
[9]
  SETFA PRE percentage damage (five point scale): 5 (5=80-100%)

## CC#Cc1cc(C)c(C2C(=O)CC3(CCN(C(=O)NC(=O)c4ccccn4)CC3)CC2=O)c(OC)c1 [Compound A79]
[1]
  LOLPE POST percentage damage (five point scale): 5 (5=80-100%)
[2]
  AVEFA POST percentage damage (five point scale): 5 (5=80-100%)
[3]
  ALOMY POST percentage damage (five point scale): 5 (5=80-100%)
[4]
  SETFA POST percentage damage (five point scale): 5 (5=80-100%)
[5]
  LOLPE PRE percentage damage (five point scale): 5 (5=80-100%)
[6]
  ECHCG PRE percentage damage (five point scale): 4 (4=60-79%)
[7]
  AVEFA PRE percentage damage (five point scale): 5 (5=80-100%)
[8]
  ALOMY PRE percentage damage (five point scale): 4 (4=60-79%)
[9]
  SETFA PRE percentage damage (five point scale): 4 (4=60-79%)

## CC#Cc1cc(C)c(C2C(=O)CC3(CCN(c4cncnc4)CC3)CC2=O)c(C)c1 [Compound A87]
[1]
  LOLPE POST percentage damage (five point scale): 5 (5=80-100%)
[2]
  AVEFA POST percentage damage (five point scale): 5 (5=80-100%)
[3]
  ALOMY POST percentage damage (five point scale): 5 (5=80-100%)
[4]
  SETFA POST percentage damage (five point scale): 5 (5=80-100%)
[5]
  LOLPE PRE percentage damage (five point scale): 5 (5=80-100%)
[6]
  ECHCG PRE percentage damage (five point scale): 5 (5=80-100%)
[7]
  AVEFA PRE percentage damage (five point scale): 3 (3=40-59%)
[8]
  ALOMY PRE percentage damage (five point scale): 4 (4=60-79%)
[9]
  SETFA PRE percentage damage (five point scale): 5 (5=80-100%)

## CC#Cc1cc(C)c(C2=C(O)CC3(CCN(C=O)CC3)CC2=O)c(C)c1 [Compound A96]
[1]
  LOLPE POST percentage damage (five point scale): 5 (5=80-100%)
[2]
  AVEFA POST percentage damage (five point scale): 5 (5=80-100%)
[3]
  ALOMY POST percentage damage (five point scale): 5 (5=80-100%)
[4]
  SETFA POST percentage damage (five point scale): 5 (5=80-100%)
[5]
  LOLPE PRE percentage damage (five point scale): 5 (5=80-100%)
[6]
  ECHCG PRE percentage damage (five point scale): 5 (5=80-100%)
[7]
  AVEFA PRE percentage damage (five point scale): 5 (5=80-100%)
[8]
  ALOMY PRE percentage damage (five point scale): 5 (5=80-100%)
[9]
  SETFA PRE percentage damage (five point scale): 5 (5=80-100%)

## CC#Cc1cc(C)c(C2C(=O)CC3(CCN(S(=O)(=O)Cc4ccon4)CC3)CC2=O)c(C)c1 [Compound A97]
[1]
  LOLPE POST percentage damage (five point scale): 5 (5=80-100%)
[2]
  AVEFA POST percentage damage (five point scale): 5 (5=80-100%)
[3]
  ALOMY POST percentage damage (five point scale): 5 (5=80-100%)
[4]
  SETFA POST percentage damage (five point scale): 5 (5=80-100%)
[5]
  LOLPE PRE percentage damage (five point scale): 5 (5=80-100%)
[6]
  ECHCG PRE percentage damage (five point scale): 5 (5=80-100%)
[7]
  AVEFA PRE percentage damage (five point scale): 5 (5=80-100%)
[8]
  ALOMY PRE percentage damage (five point scale): 4 (4=60-79%)
[9]
  SETFA PRE percentage damage (five point scale): 5 (5=80-100%)

## CC#Cc1cc(C)c(C2C(=O)CC3(CCN(S(=O)(=O)c4cccnc4)CC3)CC2=O)c(C)c1 [Compound A98]
[1]
  LOLPE POST percentage damage (five point scale): 5 (5=80-100%)
[2]
  AVEFA POST percentage damage (five point scale): 5 (5=80-100%)
[3]
  ALOMY POST percentage damage (five point scale): 5 (5=80-100%)
[4]
  SETFA POST percentage damage (five point scale): 5 (5=80-100%)
[5]
  LOLPE PRE percentage damage (five point scale): 5 (5=80-100%)
[6]
  ECHCG PRE percentage damage (five point scale): 4 (4=60-79%)
[7]
  AVEFA PRE percentage damage (five point scale): 5 (5=80-100%)
[8]
  ALOMY PRE percentage damage (five point scale): 4 (4=60-79%)
[9]
  SETFA PRE percentage damage (five point scale): 3 (3=40-59%)

## CC#Cc1cc(C)c(C2=C(OC(=O)OC)CC3(CCN(C(=O)c4ncccn4)CC3)CC2=O)c(C)c1 [Compound P22]
[1]
  LOLPE POST percentage damage (five point scale): 5 (5=80-100%)
[2]
  AVEFA POST percentage damage (five point scale): 5 (5=80-100%)
[3]
  ALOMY POST percentage damage (five point scale): 5 (5=80-100%)
[4]
  SETFA POST percentage damage (five point scale): 5 (5=80-100%)
[5]
  LOLPE PRE percentage damage (five point scale): 5 (5=80-100%)
[6]
  ECHCG PRE percentage damage (five point scale): 5 (5=80-100%)
[7]
  AVEFA PRE percentage damage (five point scale): 5 (5=80-100%)
[8]
  ALOMY PRE percentage damage (five point scale): 5 (5=80-100%)
[9]
  SETFA PRE percentage damage (five point scale): 5 (5=80-100%)

## CC#Cc1cc(C)c(C2=C(OC(=O)c3ncccn3)CC3(CCN(C(=O)c4ncccn4)CC3)CC2=O)c(C)c1 [Compound P23]
[1]
  LOLPE POST percentage damage (five point scale): 5 (5=80-100%)
[2]
  AVEFA POST percentage damage (five point scale): 5 (5=80-100%)
[3]
  ALOMY POST percentage damage (five point scale): 5 (5=80-100%)
[4]
  SETFA POST percentage damage (five point scale): 5 (5=80-100%)
[5]
  LOLPE PRE percentage damage (five point scale): 5 (5=80-100%)
[6]
  ECHCG PRE percentage damage (five point scale): 5 (5=80-100%)
[7]
  AVEFA PRE percentage damage (five point scale): 4 (4=60-79%)
[8]
  ALOMY PRE percentage damage (five point scale): 5 (5=80-100%)
[9]
  SETFA PRE percentage damage (five point scale): 5 (5=80-100%)

## CC#Cc1cc(C)c(C2=C(OC(=O)OC)CC3(CCN(C(=O)C(C)(C)OC)CC3)CC2=O)c(C)c1 [Compound P26]
[1]
  LOLPE POST percentage damage (five point scale): 5 (5=80-100%)
[2]
  AVEFA POST percentage damage (five point scale): 5 (5=80-100%)
[3]
  ALOMY POST percentage damage (five point scale): 5 (5=80-100%)
[4]
  SETFA POST percentage damage (five point scale): 5 (5=80-100%)
[5]
  LOLPE PRE percentage damage (five point scale): 5 (5=80-100%)
[6]
  ECHCG PRE percentage damage (five point scale): 5 (5=80-100%)
[7]
  AVEFA PRE percentage damage (five point scale): 5 (5=80-100%)
[8]
  ALOMY PRE percentage damage (five point scale): 5 (5=80-100%)
[9]
  SETFA PRE percentage damage (five point scale): 5 (5=80-100%)

## CC#Cc1cc(C)c(C2=C(OC(=O)OC)CC3(CCN(C(=O)C(C)O)CC3)CC2=O)c(C)c1 (stereo not drawn) [Compound P31]
[1]
  LOLPE POST percentage damage (five point scale): 5 (5=80-100%)
[2]
  AVEFA POST percentage damage (five point scale): 5 (5=80-100%)
[3]
  ALOMY POST percentage damage (five point scale): 5 (5=80-100%)
[4]
  SETFA POST percentage damage (five point scale): 5 (5=80-100%)
[5]
  LOLPE PRE percentage damage (five point scale): 5 (5=80-100%)
[6]
  ECHCG PRE percentage damage (five point scale): 5 (5=80-100%)
[7]
  AVEFA PRE percentage damage (five point scale): 5 (5=80-100%)
[8]
  ALOMY PRE percentage damage (five point scale): 5 (5=80-100%)
[9]
  SETFA PRE percentage damage (five point scale): 5 (5=80-100%)

## CC#Cc1cc(C)c(C2=C(OC(=O)OC)CC3(CCN(C(=O)C(C)OC)CC3)CC2=O)c(C)c1 (stereo not drawn) [Compound P32]
[1]
  LOLPE POST percentage damage (five point scale): 5 (5=80-100%)
[2]
  AVEFA POST percentage damage (five point scale): 5 (5=80-100%)
[3]
  ALOMY POST percentage damage (five point scale): 5 (5=80-100%)
[4]
  SETFA POST percentage damage (five point scale): 5 (5=80-100%)
[5]
  LOLPE PRE percentage damage (five point scale): 5 (5=80-100%)
[6]
  ECHCG PRE percentage damage (five point scale): 5 (5=80-100%)
[7]
  AVEFA PRE percentage damage (five point scale): 5 (5=80-100%)
[8]
  ALOMY PRE percentage damage (five point scale): 5 (5=80-100%)
[9]
  SETFA PRE percentage damage (five point scale): 5 (5=80-100%)
